Measurements: the supplement of paper PMC12076712

Assays:
Experiment in all cases: pIC50, kinobeads binding competition
UniProt Q16513 = biological target: UniProt Q16513
Outline: (§1)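 Fold changes relative to vehicle, from biological duplicates, were fitted with logistic dose-response models in the R drc package to give pIC50. These fold changes came from TMT10 LC-MS/MS quantification of digested Kinobeads-bound proteins. Compound was applied at nine concentrations (top 30 μM) either to live Jurkat cells in 1:4 steps for 60 min at 37 °C before lysis, or to Jurkat lysate or a 1:1:1:1 HEK293/K-562/HepG2/placenta lysate mix in 1:5 steps for 60 min at 4 °C.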

ABL2 = ABL2 (UniProt P42684)
Outline: as §1

UniProt Q15418 = biological target: UniProt Q15418
Outline: as §1

LYN = LYN (UniProt P07948)
Outline: as §1

UniProt Q9Y2I7 = biological target: UniProt Q9Y2I7
Outline: as §1

UniProt P45983 = biological target: UniProt P45983
Outline: as §1

UniProt P07947 = biological target: UniProt P07947
Outline: as §1

DAPK3 = DAPK3 (UniProt O43293); conditions: cell material: Lysate mix
Outline: as §1

MYLK = MYLK (UniProt Q15746); conditions: cell material: Lysate mix
Outline: as §1

MAP3K4 = MAP3K4 (UniProt Q9Y6R4)
Outline: as §1

UniProt P51812 = biological target: UniProt P51812
Outline: as §1

PRKD3 = biological target: T1, PRKD3 (UniProt O94806)
T1 sequence (whole entry): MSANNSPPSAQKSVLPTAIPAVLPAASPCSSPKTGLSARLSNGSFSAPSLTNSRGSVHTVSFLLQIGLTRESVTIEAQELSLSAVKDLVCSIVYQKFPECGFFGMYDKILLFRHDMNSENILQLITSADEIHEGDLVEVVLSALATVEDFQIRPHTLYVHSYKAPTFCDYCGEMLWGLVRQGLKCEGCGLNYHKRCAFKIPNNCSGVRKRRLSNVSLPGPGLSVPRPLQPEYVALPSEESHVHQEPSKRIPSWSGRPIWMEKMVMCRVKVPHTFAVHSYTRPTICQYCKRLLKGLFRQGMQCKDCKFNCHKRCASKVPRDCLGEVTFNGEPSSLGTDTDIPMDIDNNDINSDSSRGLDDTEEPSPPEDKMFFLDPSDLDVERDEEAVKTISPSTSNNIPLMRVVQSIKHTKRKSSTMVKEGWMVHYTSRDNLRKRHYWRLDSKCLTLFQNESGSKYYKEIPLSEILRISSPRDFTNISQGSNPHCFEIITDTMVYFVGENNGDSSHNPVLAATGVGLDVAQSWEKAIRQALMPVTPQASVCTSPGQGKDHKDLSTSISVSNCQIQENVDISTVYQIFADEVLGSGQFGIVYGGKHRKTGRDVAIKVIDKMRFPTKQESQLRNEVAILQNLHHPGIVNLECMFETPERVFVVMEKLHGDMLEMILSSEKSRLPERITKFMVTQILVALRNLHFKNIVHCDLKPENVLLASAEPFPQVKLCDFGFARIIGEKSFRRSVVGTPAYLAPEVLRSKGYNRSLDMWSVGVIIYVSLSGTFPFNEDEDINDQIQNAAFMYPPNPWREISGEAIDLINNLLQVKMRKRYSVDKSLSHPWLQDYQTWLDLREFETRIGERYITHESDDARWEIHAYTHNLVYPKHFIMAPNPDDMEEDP
Outline: as §1

UniProt Q9BUB5 = biological target: UniProt Q9BUB5
Outline: as §1

UniProt Q9NYV4 = biological target: UniProt Q9NYV4
Outline: as §1

SLK = SLK (UniProt Q9H2G2)
Outline: as §1

UniProt P17252 = biological target: UniProt P17252
Outline: as §1

MELK = MELK (UniProt Q14680)
Outline: as §1

PRKCQ = PRKCQ (UniProt Q04759)
Outline: as §1

UniProt Q07912 = biological target: UniProt Q07912
Outline: as §1

DDR2 = biological target: T2, DDR2 (UniProt Q16832); conditions: cell material: Lysate mix
T2 sequence (whole entry): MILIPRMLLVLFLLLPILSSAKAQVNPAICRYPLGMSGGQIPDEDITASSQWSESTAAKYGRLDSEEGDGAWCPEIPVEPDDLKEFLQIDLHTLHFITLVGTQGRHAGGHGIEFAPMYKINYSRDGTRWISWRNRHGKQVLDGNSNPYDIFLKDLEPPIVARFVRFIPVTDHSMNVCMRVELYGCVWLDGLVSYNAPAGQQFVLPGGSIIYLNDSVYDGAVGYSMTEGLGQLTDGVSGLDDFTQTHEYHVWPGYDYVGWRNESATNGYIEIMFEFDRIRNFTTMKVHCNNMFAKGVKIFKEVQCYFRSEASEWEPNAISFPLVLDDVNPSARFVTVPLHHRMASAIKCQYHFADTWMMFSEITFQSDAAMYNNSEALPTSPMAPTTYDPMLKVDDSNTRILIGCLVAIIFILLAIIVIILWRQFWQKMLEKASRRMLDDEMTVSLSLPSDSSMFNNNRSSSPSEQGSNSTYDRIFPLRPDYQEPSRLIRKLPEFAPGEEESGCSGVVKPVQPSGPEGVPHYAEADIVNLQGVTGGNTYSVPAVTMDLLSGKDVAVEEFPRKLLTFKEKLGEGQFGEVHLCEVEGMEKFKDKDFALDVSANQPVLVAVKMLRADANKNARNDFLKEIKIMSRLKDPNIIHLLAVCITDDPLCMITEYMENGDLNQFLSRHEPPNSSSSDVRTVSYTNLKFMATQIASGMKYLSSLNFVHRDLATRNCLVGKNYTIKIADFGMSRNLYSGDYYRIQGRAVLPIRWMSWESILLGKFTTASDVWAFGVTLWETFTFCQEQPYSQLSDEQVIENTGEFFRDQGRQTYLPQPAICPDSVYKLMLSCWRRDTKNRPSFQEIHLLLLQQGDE
Outline: as §1

Chain of UniProt Q9BUB5 (Q9BUB5 whole entry, looked up): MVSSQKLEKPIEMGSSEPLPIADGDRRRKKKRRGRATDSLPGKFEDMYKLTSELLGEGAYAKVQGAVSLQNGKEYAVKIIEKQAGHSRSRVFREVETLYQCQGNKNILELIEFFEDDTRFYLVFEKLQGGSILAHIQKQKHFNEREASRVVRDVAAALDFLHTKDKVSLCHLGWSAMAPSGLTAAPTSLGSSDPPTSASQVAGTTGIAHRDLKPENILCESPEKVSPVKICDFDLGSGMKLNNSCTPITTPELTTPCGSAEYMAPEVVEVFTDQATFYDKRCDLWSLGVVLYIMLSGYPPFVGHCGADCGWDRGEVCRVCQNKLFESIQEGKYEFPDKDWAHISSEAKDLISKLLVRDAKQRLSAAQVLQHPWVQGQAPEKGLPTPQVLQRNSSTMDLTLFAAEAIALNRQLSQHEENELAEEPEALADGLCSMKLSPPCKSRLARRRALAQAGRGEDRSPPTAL
Chain of MAP3K4 (Q9Y6R4 whole entry): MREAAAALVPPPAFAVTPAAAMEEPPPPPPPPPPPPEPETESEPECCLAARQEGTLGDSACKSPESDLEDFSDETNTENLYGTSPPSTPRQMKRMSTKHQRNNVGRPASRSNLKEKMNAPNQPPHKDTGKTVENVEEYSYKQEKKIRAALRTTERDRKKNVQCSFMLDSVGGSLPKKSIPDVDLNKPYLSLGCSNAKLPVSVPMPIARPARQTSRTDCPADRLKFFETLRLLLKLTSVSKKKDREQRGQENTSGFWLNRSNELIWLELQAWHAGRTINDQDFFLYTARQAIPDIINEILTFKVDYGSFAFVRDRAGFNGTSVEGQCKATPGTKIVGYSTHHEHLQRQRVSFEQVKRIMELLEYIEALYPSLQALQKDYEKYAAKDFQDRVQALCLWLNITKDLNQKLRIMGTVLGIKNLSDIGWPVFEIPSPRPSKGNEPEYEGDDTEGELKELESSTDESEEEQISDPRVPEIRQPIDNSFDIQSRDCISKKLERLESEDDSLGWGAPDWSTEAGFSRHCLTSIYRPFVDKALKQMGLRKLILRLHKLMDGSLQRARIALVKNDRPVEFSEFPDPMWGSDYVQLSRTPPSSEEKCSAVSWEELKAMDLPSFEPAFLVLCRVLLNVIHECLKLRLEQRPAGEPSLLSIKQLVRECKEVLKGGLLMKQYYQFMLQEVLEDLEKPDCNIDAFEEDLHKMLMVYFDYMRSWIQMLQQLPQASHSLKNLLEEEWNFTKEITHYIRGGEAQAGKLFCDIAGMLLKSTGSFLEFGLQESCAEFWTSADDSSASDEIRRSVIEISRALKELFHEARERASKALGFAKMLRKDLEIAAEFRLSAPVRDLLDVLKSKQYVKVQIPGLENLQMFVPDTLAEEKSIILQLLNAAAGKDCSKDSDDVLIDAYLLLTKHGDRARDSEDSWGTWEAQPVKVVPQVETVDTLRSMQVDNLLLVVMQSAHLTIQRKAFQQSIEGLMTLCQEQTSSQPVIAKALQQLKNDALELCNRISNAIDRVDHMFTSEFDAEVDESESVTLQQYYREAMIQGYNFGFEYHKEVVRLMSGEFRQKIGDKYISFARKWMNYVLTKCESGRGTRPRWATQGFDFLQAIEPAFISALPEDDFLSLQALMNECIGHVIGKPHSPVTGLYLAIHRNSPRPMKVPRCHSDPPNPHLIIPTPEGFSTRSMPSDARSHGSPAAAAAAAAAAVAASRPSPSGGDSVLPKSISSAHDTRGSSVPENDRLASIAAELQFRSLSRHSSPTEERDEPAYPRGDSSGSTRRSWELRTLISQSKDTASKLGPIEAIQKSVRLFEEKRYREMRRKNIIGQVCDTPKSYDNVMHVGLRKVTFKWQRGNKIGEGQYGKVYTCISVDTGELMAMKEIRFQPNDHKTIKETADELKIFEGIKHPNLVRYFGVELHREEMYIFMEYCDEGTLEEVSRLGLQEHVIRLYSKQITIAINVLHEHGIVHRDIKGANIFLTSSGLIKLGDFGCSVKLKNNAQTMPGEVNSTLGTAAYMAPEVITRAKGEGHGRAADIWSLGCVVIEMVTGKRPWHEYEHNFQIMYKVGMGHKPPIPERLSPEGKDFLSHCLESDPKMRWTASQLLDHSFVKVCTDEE
Chain of UniProt P45983 (P45983 whole entry): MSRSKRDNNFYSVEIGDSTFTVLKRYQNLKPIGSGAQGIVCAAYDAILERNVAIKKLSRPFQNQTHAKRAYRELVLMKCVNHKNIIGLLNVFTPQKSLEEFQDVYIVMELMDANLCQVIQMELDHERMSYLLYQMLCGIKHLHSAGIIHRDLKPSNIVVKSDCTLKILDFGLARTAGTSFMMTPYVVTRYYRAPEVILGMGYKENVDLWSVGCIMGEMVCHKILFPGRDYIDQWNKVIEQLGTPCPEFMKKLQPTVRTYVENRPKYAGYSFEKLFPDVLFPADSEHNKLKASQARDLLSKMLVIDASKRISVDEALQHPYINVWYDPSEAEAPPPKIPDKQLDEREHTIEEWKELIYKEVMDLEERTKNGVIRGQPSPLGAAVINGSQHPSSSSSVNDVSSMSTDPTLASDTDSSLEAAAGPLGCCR
Chain of PRKCQ (Q04759 whole entry, looked up): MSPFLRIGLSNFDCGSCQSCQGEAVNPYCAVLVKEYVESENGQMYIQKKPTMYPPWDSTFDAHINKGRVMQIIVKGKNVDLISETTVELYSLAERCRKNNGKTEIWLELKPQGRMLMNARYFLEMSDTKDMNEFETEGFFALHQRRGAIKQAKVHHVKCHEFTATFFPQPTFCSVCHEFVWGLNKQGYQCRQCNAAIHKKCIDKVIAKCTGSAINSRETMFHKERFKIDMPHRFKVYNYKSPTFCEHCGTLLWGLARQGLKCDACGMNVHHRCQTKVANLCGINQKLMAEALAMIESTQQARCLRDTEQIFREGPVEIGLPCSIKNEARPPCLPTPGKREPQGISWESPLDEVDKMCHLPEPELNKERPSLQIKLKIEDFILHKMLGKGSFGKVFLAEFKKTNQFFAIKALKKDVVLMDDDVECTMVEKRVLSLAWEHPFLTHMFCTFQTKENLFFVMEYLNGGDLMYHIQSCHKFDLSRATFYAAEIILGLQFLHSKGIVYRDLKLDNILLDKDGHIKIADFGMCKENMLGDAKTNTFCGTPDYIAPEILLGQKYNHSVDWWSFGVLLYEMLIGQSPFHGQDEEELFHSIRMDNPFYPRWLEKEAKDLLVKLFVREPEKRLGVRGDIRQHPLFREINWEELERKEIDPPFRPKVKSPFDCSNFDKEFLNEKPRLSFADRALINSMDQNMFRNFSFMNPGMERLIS
Chain of UniProt P51812 (P51812 whole entry): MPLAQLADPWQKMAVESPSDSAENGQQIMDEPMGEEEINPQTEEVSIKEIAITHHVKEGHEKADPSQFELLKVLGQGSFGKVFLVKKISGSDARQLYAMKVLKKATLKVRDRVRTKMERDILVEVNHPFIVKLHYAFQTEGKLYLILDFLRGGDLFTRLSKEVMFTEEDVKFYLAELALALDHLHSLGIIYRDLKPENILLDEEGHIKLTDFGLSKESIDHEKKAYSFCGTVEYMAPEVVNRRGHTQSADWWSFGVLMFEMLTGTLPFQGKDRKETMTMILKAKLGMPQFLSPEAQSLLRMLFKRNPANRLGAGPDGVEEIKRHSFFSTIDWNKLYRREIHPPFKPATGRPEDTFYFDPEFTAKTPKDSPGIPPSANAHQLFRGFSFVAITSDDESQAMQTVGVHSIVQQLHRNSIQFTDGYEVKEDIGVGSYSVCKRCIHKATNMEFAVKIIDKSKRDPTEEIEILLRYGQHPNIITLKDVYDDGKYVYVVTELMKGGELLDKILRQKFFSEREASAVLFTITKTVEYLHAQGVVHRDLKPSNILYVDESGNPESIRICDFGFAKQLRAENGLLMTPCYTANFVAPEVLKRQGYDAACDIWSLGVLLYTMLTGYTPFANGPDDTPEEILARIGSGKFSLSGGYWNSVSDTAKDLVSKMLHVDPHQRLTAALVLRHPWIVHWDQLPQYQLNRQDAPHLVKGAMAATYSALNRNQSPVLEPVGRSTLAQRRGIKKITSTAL
Chain of MELK (Q14680 whole entry, looked up): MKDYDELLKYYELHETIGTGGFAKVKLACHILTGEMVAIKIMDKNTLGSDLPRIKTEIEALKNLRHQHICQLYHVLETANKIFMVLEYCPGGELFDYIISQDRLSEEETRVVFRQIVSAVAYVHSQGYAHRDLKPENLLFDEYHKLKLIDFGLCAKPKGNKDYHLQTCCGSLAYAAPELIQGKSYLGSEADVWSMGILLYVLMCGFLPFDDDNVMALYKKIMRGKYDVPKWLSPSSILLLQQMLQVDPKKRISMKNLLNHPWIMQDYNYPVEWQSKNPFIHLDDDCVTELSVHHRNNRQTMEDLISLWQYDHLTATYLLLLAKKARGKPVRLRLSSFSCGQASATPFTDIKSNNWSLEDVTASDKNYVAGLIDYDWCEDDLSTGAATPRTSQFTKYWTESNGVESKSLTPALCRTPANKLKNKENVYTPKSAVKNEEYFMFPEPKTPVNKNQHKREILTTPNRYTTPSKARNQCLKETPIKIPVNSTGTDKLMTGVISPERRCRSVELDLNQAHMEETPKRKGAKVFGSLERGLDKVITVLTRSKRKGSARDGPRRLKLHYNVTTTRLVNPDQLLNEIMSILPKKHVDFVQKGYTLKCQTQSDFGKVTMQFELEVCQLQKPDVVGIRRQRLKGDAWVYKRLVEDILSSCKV
Chain of DAPK3 (O43293 whole entry, looked up): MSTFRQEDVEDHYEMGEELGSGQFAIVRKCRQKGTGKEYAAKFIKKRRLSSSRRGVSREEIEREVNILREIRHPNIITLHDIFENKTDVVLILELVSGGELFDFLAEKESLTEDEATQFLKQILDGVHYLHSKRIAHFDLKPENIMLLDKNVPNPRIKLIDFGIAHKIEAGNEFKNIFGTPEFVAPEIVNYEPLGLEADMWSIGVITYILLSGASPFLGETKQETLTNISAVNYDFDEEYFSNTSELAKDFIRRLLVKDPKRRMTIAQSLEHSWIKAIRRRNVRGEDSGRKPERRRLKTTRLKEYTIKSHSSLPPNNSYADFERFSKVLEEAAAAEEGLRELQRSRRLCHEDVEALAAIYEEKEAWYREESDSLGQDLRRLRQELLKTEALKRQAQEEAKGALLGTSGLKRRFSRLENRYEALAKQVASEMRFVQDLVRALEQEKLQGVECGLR

## C#CCNC(=O)c1cc(Nc2cc(C3CC3)[nH]n2)nc(N2CCN(Cc3ccc(S(=O)(=O)F)cc3)CC2)n1
UniProt Q16513; cell material: Jurkat cells
  pIC50: 5.32
UniProt Q16513; cell material: Jurkat lysate
  pIC50: < 4.52
UniProt Q16513; cell material: Lysate mix
  pIC50: < 4.52
ABL2; cell material: Jurkat cells
  pIC50: 5.87
ABL2; cell material: Jurkat lysate
  pIC50: 4.65
ABL2; cell material: Lysate mix
  pIC50: 5.39
UniProt Q15418; cell material: Jurkat cells
  pIC50: 5.98
UniProt Q15418; cell material: Jurkat lysate
  pIC50: < 4.52
UniProt Q15418; cell material: Lysate mix
  pIC50: 5.49
LYN; cell material: Jurkat lysate
  pIC50: 5.41
LYN; cell material: Lysate mix
  pIC50: 6.03
UniProt Q9Y2I7; cell material: Jurkat cells
  pIC50: 5.27
UniProt Q9Y2I7; cell material: Jurkat lysate
  pIC50: < 4.52
UniProt Q9Y2I7; cell material: Lysate mix
  pIC50: < 4.52
UniProt P45983; cell material: Jurkat cells
  pIC50: 5.34
UniProt P45983; cell material: Jurkat lysate
  pIC50: < 4.52
UniProt P45983; cell material: Lysate mix
  pIC50: 4.72
UniProt P07947; cell material: Jurkat cells
  pIC50: 6.61
UniProt P07947; cell material: Jurkat lysate
  pIC50: 5.84
UniProt P07947; cell material: Lysate mix
  pIC50: 6.62
DAPK3
  pIC50: < 4.52
MYLK
  pIC50: < 4.52
MAP3K4; cell material: Jurkat cells
  pIC50: 6.09
MAP3K4; cell material: Jurkat lysate
  pIC50: 4.81
MAP3K4; cell material: Lysate mix
  pIC50: 5.74
UniProt P51812; cell material: Jurkat cells
  pIC50: 5.96
UniProt P51812; cell material: Jurkat lysate
  pIC50: < 4.52
UniProt P51812; cell material: Lysate mix
  pIC50: 5.44
PRKD3; cell material: Jurkat cells
  pIC50: 5.32
PRKD3; cell material: Jurkat lysate
  pIC50: < 4.52
PRKD3; cell material: Lysate mix
  pIC50: < 4.52
UniProt Q9BUB5; cell material: Jurkat cells
  pIC50: 5.31
UniProt Q9BUB5; cell material: Jurkat lysate
  pIC50: < 4.52
UniProt Q9BUB5; cell material: Lysate mix
  pIC50: < 4.52
UniProt Q9NYV4; cell material: Jurkat cells
  pIC50: 6.33
UniProt Q9NYV4; cell material: Lysate mix
  pIC50: 5.34
SLK; cell material: Jurkat cells
  pIC50: 5.46
SLK; cell material: Jurkat lysate
  pIC50: < 4.52
SLK; cell material: Lysate mix
  pIC50: < 4.52
UniProt P17252; cell material: Jurkat cells
  pIC50: 5.48
UniProt P17252; cell material: Jurkat lysate
  pIC50: < 4.52
UniProt P17252; cell material: Lysate mix
  pIC50: < 4.52
MELK; cell material: Jurkat cells
  pIC50: < 4.52
MELK; cell material: Jurkat lysate
  pIC50: < 4.52
MELK; cell material: Lysate mix
  pIC50: < 4.52
PRKCQ; cell material: Jurkat cells
  pIC50: 5.42
PRKCQ; cell material: Jurkat lysate
  pIC50: < 4.52
PRKCQ; cell material: Lysate mix
  pIC50: < 4.52
UniProt Q07912; cell material: Jurkat cells
  pIC50: 5.16
UniProt Q07912; cell material: Jurkat lysate
  pIC50: < 4.52
UniProt Q07912; cell material: Lysate mix
  pIC50: < 4.52
DDR2
  pIC50: < 4.52
